Experimental findings from patent US10188710B2, “Regulatory T cell epitope and hepatitis C virus homolog” (Rhode Island Council on Postsecondary Education, priority 2013, dated 2019) are described below.

“Also recorded” adds a separate entry of the source.

Common to all, as to assay type: cell-based, human
In assay [1] the test system is PBMCs derived from HCV-infected (Ab+VL+) patients. Nature of the assay: CD3+CD4+FoxP3+ cell induction in PBMC cultures from HCV-infected patients (flow cytometry). The note with it: 10 μg/ml peptide, 5 days; for increase in CD3+CD4+FoxP3+ cells: PBMCs from Ab+VL+ patients, vs medium alone. From the text:
(§1) HCV-seropositive subjects with persistent viremia (Ab^+VL^+), patients who spontaneously resolved infection (Ab^+VL^−) and HCV-seronegative, non-infected (Ab^−VL^−) individuals were recruited from the Rhode Island Adult Corrections Institution (ACI) to participate in this study. Recruitment methods and the population are described elsewhere. The Institutional Review Boards of the Miriam Hospital, Rhode Island Department of Corrections and Office of Human Research Protection approved this study. All HCV infected subjects included in these analyses were infected with HCV genotype 1a or 1b (Versant HCV genotype assay 2, Siemens Healthcare Diagnostics Inc.). Hartford Hospital Transplantation Research Laboratory (Hartford, Conn.) and the Cellular Mediated Immunology Core Laboratory at the University of Rhode Island (Providence, R.I.) performed HLA typing.
Cryopreserved PBMCs were thawed; suspended in HEPES-buffered RPMI1640 medium supplemented with 10% HuAB serum (Valley Biomedical, Winchester, Va.), glutamine, 100 U/ml penicillin and 100 μg/ml streptomycin; and rested overnight at 37° C. in a humidified, CO2 incubator. On the following day, the PBMCs were centrifuged and resuspended in fresh medium containing 5% HuAB serum; 1×10^6 cells/nil were transferred to deep, flat-bottom, non-treated 48-well plates. The peptide sequence indicated in the text was added (10 μg/ml final concentration) and the cells were incubated for 5 days. PBMCs cultured in the presence of medium with 0.1% DMSO served as a negative control. Half the spent medium was replaced on day 3. The cells were collected for analysis on day 5.
The cells collected after 5 days incubation were quantified and characterized in accordance with methods we described previously. Dye-conjugated mouse monoclonal antibodies specific for the following determinants were purchased from BioLegend (San Diego, Calif.) and used: CD3, CD4 (clone OKT4), CD8a (clone HIT8a); CD39 (clone A1), and CD304 (clone 14H4); anti-human CD25 (clone M-A251) and anti-human FoxP3 (clone 236a) were purchased BD Biosciences (San Jose, Calif.). Data were collected on a 4 laser (13 color capability) BD LSRII Flow Cytometer (BD Biosciences, San Jose, Calif.) and analyzed using FlowJo software (Tree Star, Inc., Ashland, Oreg.). All analyses were conducted using the appropriate isotype controls to correct for non-specific staining PBMCs were cultured in the presence of medium alone, 10 μg/ml HCV_G1_p7_794, or 10 μg/ml HCV_G1_NS4b_1941.
The results were analyzed using the SigmaStat statistics program (Aspire Software International). Individual means were compared using a non-paired Student's t test or a Mann-Whitney Rank Sum test.
The cells were collected after 5 days incubation and analyzed by flow cytometry (FIGS. 1A-1C). The CD3+CD4+FoxP3+ cells were further characterized by the expression of CD25 and CD39 (FIG. 1B). The gating scheme and representative analyses are shown.
On the technique in general: In flow cytometry, cells or beads pass a laser one at a time.

The subject of assay [2] is PBMCs derived from non-infected (Ab-VL-) individuals. As to the kind of experiment: CD3+CD4+FoxP3+ cell induction in PBMC cultures from non-infected individuals (flow cytometry). To be noted: 10 μg/ml peptide, 5 days.
Description: as §1, with “typing. […]” for “typing.”
The cells collected after 5 days incubation were quantified and characterized in accordance with methods we described previously. […] Data were collected on a 4 laser (13 color capability) BD LSRII Flow Cytometer (BD Biosciences, San Jose, Calif.) and analyzed using FlowJo software (Tree Star, Inc., Ashland, Oreg.). […]
The results were analyzed using the SigmaStat statistics program (Aspire Software International). […]

Assay [3] deals with CFSE-labeled Ab+VL+ PBMCs. Nature of the assay: CFSE proliferation assay with or without anti-CD3. The protocol: For proliferation assays, cells rested overnight were labeled with carboxyfluorescein diacetate, succinimidyl ester (CFSE: Life Technologies Corporation, Carlsbad, Calif.) prior to culture in the presence or absence of 30 ng/ml anti-CD3 monoclonal antibody (clone HIT3a; BioLegend, San Diego, Calif.) and 10 μg/ml HCV_G1_p7_794. Cell proliferation was evaluated by flow cytometric analysis according to the protocol provided by Life Technologies in which a loss in fluorescence intensity correlates directly with the extent of replication.
The hallmark of CD3^+CD4^+FoxP3^+ Treg cells is suppressor activity. CSFE-labeled, Ab^+VL^+ PBMCs were cultured with medium alone or medium that contained 30 ng/ml anti-CD3, 10 μg/ml HCV_G1_p7_794 or a combination of anti-CD3 and HCV_G1_p7_794. After 5 days incubation, the cells were collected and proliferation the total (FIG. 3BA) and CD3^+CD4^+ (FIG. 3B) PBMC populations was estimated by flow cytometry. Data were obtained in a single experiment representative of the results obtained for PBMCs derived from six HCV-infected patients.

In the case of “AARVTQILSSL TITQLLKRLHQWI [HCV_G1_NS4b_1941, reference compound]”, the “increase in CD3+CD4+FoxP3+ cells” value in assay [1] is given as “failed to promote an increase”.

On to “ISGIQYLAGLSTLPGNPA [HCV_G1_NS4b_1769, reference compound]”, for which the “increase in CD3+CD4+FoxP3+ cells” value in assay [1] is reported as “failed to elicit a CD3+CD4+FoxP3+ cell response”.

In the case of PLLLLLLSLPPRA [Human p7_794], the “increase in CD3+CD4+FoxP3+ cells” value in assay [2] is “three”; in assay [2] (vs medium alone), “significant increase”; in assay [1], “significant increase”.

Take “WPLLLLLLALPQRAYAQ (Hepatitis C virus) [HCV_G1_p7_794]”: the “effect on proliferative response to anti-CD3 monoclonal antibody” value in assay [3] (30 ng/ml anti-CD3 plus 10 μg/ml peptide, 5 days, total or CD3+CD4+ population) is “reproducible, albeit slight, decrease”. For the same sequence, the “effect on proliferation of CD3+CD4+ T cells” value in assay [3] (10 μg/ml peptide alone, no anti-CD3, 5 days) was “no effect”. Further, in assay [1] (Ab+VL+ PBMCs), the “CD25 and CD39 expression by induced CD3+CD4+FoxP3+ cells” value was “expressed both CD25; also recorded: vast majority of these cells expressed CD39”; the “CD304 (neuropilin) expression by CD4+FoxP3+ cells” value is on record as “vast majority of CD4^+FoxP3^+ cells among Ab^+VL^+ PBMCs cultured in the presence of HCV_G1_p7_794 were CD304-negative; also recorded: only a minority”. The “increase in CD3+CD4+FoxP3+ cells” value in assay [1] is on record as “marked increase”.
